# Source: patent publication US20250230193A1, “CYCLIC COMPOUND HAVING SELECTIVE KRAS INHIBITORY EFFECT ON HRAS AND NRAS” (CHUGAI SEIYAKU KABUSHIKI KAISHA, priority 2022, published 2025)
# Where a SMILES comes first, the peptide text is derived from it. Bridges are numbered along the chain shown (N, C = ends). [ ]: non-standard residue; d: D form. The star is where a group is joined. hPhe(3,5-F2-4-CF3) = N[C@@H](CCc1cc(F)c(C(F)(F)F)c(F)c1)C(=O)O; NPrPhe(4-CF3) = CCCN[C@@H](Cc1ccc(C(F)(F)F)cc1)C(=O)O; NMeGly(cPent) = CN[C@H](C(=O)O)C1CCCC1; Ac4c(3,3-F2) = NC1(C(=O)O)CC(F)(F)C1; NMeD = CN[C@@H](CC(=O)O)C(=O)O; Ac4c(3-oxa) = NC1(C(=O)O)COC1; NMeL = CN[C@@H](CC(C)C)C(=O)O; Morpholide = C1CN(*)CCO1; Aze = O=C(O)[C@@H]1CCN1; Sar = CNCC(=O)O
# Experiments:
# [1] = target: GDP-bound HRAS wild-type protein (Homo sapiens, UniProt P01112); assay: Binding to HRAS by surface plasmon resonance (SPR), Single Cycle Kinetics; settings: for HRAS/KRAS (ratio of KD value with respect to HRAS to KD value with respect to KRAS): GDP-bound HRAS wild-type vs GDP-bound KRAS wild-type
# Chain of GDP-bound HRAS wild-type protein (P01112 whole entry): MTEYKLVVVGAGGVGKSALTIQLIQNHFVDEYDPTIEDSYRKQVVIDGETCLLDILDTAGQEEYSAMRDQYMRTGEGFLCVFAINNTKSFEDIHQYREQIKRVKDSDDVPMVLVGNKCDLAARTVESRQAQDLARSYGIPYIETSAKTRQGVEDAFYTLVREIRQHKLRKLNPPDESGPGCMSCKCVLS
# [2] = target: GDP-bound NRAS wild-type protein (Homo sapiens, UniProt P01111); assay: Binding to NRAS by surface plasmon resonance (SPR), Single Cycle Kinetics; settings: for NRAS/KRAS (ratio of KD value with respect to NRAS to KD value with respect to KRAS): GDP-bound NRAS wild-type vs GDP-bound KRAS wild-type
# Chain of GDP-bound NRAS wild-type protein (P01111 whole entry): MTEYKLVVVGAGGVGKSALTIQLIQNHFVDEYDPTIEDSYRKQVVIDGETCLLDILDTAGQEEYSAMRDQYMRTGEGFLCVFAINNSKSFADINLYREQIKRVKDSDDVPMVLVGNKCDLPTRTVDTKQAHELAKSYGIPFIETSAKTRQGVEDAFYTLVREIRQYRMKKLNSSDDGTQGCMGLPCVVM
Compound,HRAS/KRAS (ratio of KD value with respect to GDP-bound HRAS wild-type protein to KD value with respect to KRAS) ([1]; class symbols),NRAS/KRAS (ratio of KD value with respect to GDP-bound NRAS wild-type protein to KD value with respect to KRAS) ([2]; class symbols),HRAS/KRAS (ratio of KD value with respect to GDP-bound HRAS wild-type protein to KD value with respect to KRAS) ([1]; SPR),NRAS/KRAS (ratio of KD value with respect to GDP-bound NRAS wild-type protein to KD value with respect to KRAS) ([2]; SPR),further results
CCO[C@@H]1C[C@H]2C(=O)NC3(CCC3)C(=O)N(C)[C@@H](C3CCCC3)C(=O)N(C)[C@H](C(=O)N3CCOCC3)CC(=O)N(C)[C@@H](Cc3cscn3)C(=O)N[C@@H]([C@@H](C)CC)C(=O)N(C)CC(=O)N(C)[C@H]3CCCCCN(C3=O)[C@@H](Cc3ccc(C(F)(F)F)cc3)C(=O)N(C)CC(=O)N[C@@H](CCc3cc(F)c(C(F)(F)F)c(F)c3)C(=O)N2C1 [PP0855],,,,,"HRAS/KRAS (ratio of KD value with respect to HRAS to KD value with respect to KRAS) ([1]; KD ratio, SPR): B (a compound having 3 or more and less than 10 is denoted as B); NRAS/KRAS (ratio of KD value with respect to NRAS to KD value with respect to KRAS) ([2]; KD ratio, SPR): B (a compound having 3 or more and less than 10 is denoted as B)"
CCC[C@H]1C(=O)N[C@@H]([C@@H](C)CC)C(=O)N(C)CC(=O)N(C)[C@H]2C/C=C\CCN(C2=O)[C@@H](Cc2ccc(C(F)(F)F)cc2)C(=O)N(C)CC(=O)N[C@@H](CCc2ccc3sc(C)c(C)c3c2)C(=O)N2C[C@H](OCC)C[C@H]2C(=O)NC2(CC(C)(C)C2)C(=O)N(C)[C@@H](C2CCCC2)C(=O)N(C)[C@H](C(=O)N(C)C)CC(=O)N1C [PP2889],A (a compound having 10 or more and less than 20 is denoted as A),A (a compound having 10 or more and less than 20 is denoted as A),,,
"CCCN1C(=O)[C@@H]2CCN2C(=O)CN(C)C(=O)[C@H]([C@@H](C)CC)NC(=O)[C@H](CC(C)C)N(C)C(=O)C[C@@H](C(=O)N2CCOCC2)N(C)C(=O)[C@H](C2CCCC2)N(C)C(=O)C2(COC2)NC(=O)[C@@H]2CCCN2C(=O)[C@H](CCc2cc(F)c(C(F)(F)F)c(F)c2)NC(=O)CN(C)C(=O)[C@@H]1Cc1ccc(C(F)(F)F)cc1 [PP0801] ([NMeL]I[Sar][Aze][NPrPhe(4-CF3)][Sar][hPhe(3,5-F2-4-CF3)]P[Ac4c(3-oxa)][NMeGly(cPent)][NMeD]-Morpholide; lactam N-11)",,,B (a compound having 3 or more and less than 10 is denoted as B),C (A compound having a KD ratio of 0.1 or more and less than 3 is denoted as C),
CCC(CC)[C@H]1C(=O)N(C)[C@H](C(=O)N(C)C)CC(=O)N(C)[C@@H](COC)C(=O)N[C@@H]([C@@H](C)CC)C(=O)N(C2CC2)CC(=O)N(C)[C@H]2C/C=C\CCN(C2=O)[C@@H](CC2CCC(F)(F)CC2)C(=O)N(C)CC(=O)N[C@@H](CCc2cc(F)c(C(F)(F)F)c(F)c2)C(=O)N2C[C@H](OC(C)C)C[C@H]2C(=O)NC2(CC(C)(C)C2)C(=O)N1C [PP2523],A (a compound having 10 or more and less than 20 is denoted as A),A (a compound having 10 or more and less than 20 is denoted as A),,,
"CCCN1C(=O)[C@@H]2CCN2C(=O)CN(C)C(=O)[C@H]([C@@H](C)CC)NC(=O)[C@H](CC(C)C)N(C)C(=O)C[C@@H](C(=O)N2CCOCC2)N(C)C(=O)[C@H](C2CCCC2)N(C)C(=O)C2(CC(F)(F)C2)NC(=O)[C@@H]2CCCN2C(=O)[C@H](CCc2cc(F)c(C(F)(F)F)c(F)c2)NC(=O)CN(C)C(=O)[C@@H]1Cc1ccc(C(F)(F)F)cc1 [PP0802] ([NMeL]I[Sar][Aze][NPrPhe(4-CF3)][Sar][hPhe(3,5-F2-4-CF3)]P[Ac4c(3,3-F2)][NMeGly(cPent)][NMeD]-Morpholide; lactam N-11)",,,B (a compound having 3 or more and less than 10 is denoted as B),C (A compound having a KD ratio of 0.1 or more and less than 3 is denoted as C),
CCC(CC)[C@H]1C(=O)N(C)[C@H](C(=O)N(C)C)CC(=O)N(C)[C@H]2CCC/C=C/c3ccc(cc3)C[C@@H](C(=O)N(C)CC(=O)N[C@@H](CCc3ccc(Cl)c(Cl)c3)C(=O)N3CCC[C@H]3C(=O)NC3(CC(C)(C)C3)C(=O)N1C)N1CC/C=C\C[C@@H](C1=O)N(C)C(=O)CN(C)C(=O)[C@H]([C@@H](C)CC)NC2=O [PP2603],A (a compound having 10 or more and less than 20 is denoted as A),AA (a compound having 20 or more is denoted as AA),,,
CCO[C@@H]1C[C@H]2C(=O)NC3(CCC3)C(=O)N(C)[C@@H](C3CCCC3)C(=O)N(C)[C@H](C(=O)N3CCOCC3)CC(=O)N(C)[C@@H](CC)C(=O)N[C@@H]([C@@H](C)CC)C(=O)N(C)CC(=O)N(C)[C@H]3CCCCN(C3=O)[C@@H](Cc3ccc(C(F)(F)F)cc3)C(=O)N(C)CC(=O)N[C@@H](CCc3cc(F)c(C(F)(F)F)c(F)c3)C(=O)N2C1 [PP0708],,,B (a compound having 3 or more and less than 10 is denoted as B),B (a compound having 3 or more and less than 10 is denoted as B),
CCOC[C@H]1C(=O)N[C@@H]([C@@H](C)CC)C(=O)N(C)CC(=O)N(C)[C@H]2C/C=C\CCN(C2=O)[C@@H](CC2CCC(F)(F)CC2)C(=O)N(C)CC(=O)N[C@@H](CCc2cc(F)c(C(F)(F)F)c(F)c2)C(=O)N2C[C@H](OCC)C[C@H]2C(=O)NC2(CC(C)(C)C2)C(=O)N(C)[C@@H](C(CC)CC)C(=O)N(C)[C@H](C(=O)N(C)C)CC(=O)N1C [PP2450],,,,,HRAS/KRAS (ratio of KD value with respect to HRAS to KD value with respect to KRAS) ([1]; SPR): A (a compound having 10 or more and less than 20 is denoted as A); NRAS/KRAS (ratio of KD value with respect to NRAS to KD value with respect to KRAS) ([2]; SPR): A (a compound having 10 or more and less than 20 is denoted as A)
